According to ChEMBL document CHEMBL5113383, “Application of the All-Hydrocarbon Stapling Technique in the Design of Membrane-Active Peptides” (J Med Chem, 2022):
Values after ≈ are worked out from the molar mass of the structure shown. Positions of bridges follow the written chain, without caps; N, C: chain ends. Non-standard residues stand in square brackets, D forms with d. Residues, ends and D or L forms follow the SMILES beside them. S5 = C=CCCC[C@](C)(N)C(=O)O

Columns and labels:
Candida albicans [1] = assay: Antimicrobial activity against Candida albicans 901; type: functional
Nakaseomyces glabratus [2] = assay: Antimicrobial activity against Candida glabrata ATCC 1182; type: functional
Pichia kudriavzevii = assay: Antimicrobial activity against Candida krusei ATCC 2340; type: functional
[Candida] auris [3] = Antimicrobial activity against Candida auris 919; type: functional; conditions: Candidozyma auris
Candida tropicalis [4] = assay: Antimicrobial activity against Candida tropicalis 895; type: functional
[Candida] auris [5] = Antimicrobial activity against Candida auris 918; type: functional; conditions: Candidozyma auris
Candida albicans [6] = assay: Antimicrobial activity against Candida albicans 904; type: functional
Candida tropicalis [7] = assay: Antimicrobial activity against Candida tropicalis ATCC 20026; type: functional
Candida parapsilosis = assay: Antimicrobial activity against Candida parapsilosis ATCC 22010; type: functional; conditions: Lodderomyces parapsilosis
Nakaseomyces glabratus [8] = assay: Antimicrobial activity against Candida glabrata 896; type: functional
Candida albicans [9] = assay: Antimicrobial activity against Candida albicans SC5314; type: functional
[10] = Hemolytic activity in human erythrocytes incubated for 30 mins; type: toxicity, cell-based, Erythrocyte

| Compound | MIC (Candida albicans [1]) [µg/mL] | MIC (Nakaseomyces glabratus [2]) [µg/mL] | MIC (Pichia kudriavzevii) [µg/mL] | MIC ([Candida] auris [3]) [µg/mL] | MIC (Candida tropicalis [4]) [µg/mL] | MIC ([Candida] auris [5]) [µg/mL] | MIC (Candida albicans [6]) [µg/mL] | MIC (Candida tropicalis [7]) [µg/mL] | MIC (Candida parapsilosis) [µg/mL] | MIC (Nakaseomyces glabratus [8]) [µg/mL] | MIC (Candida albicans [9]) [µg/mL] | HC50 at 0.5 h [10] [nM] |
| --- | --- | --- | --- | --- | --- | --- | --- | --- | --- | --- | --- | --- |
| CC[C@H](C)[C@H](NC(=O)[C@H](CC(=O)O)NC(=O)[C@H](Cc1ccccc1)NC(=O)[C@H](CC(C)C)NC(=O)CNC(C)=O)C(=O)N[C@H](C(=O)N[C@@H](CCCCN)C(=O)N[C@@H](CCCCN)C(=O)N[C@@]1(C)CCC/C=C\CCC[C@@](C)(C(N)=O)NC(=O)[C@H](CO)NC(=O)[C@H](CCC(=O)O)NC(=O)[C@H](C)NC1=O)[C@@H](C)CC (Ac-GLFDIIKK[S5]AES[S5]-NH2; staple (Z) 9-13) | > 128 | > 128 | > 128 | > 128 | 32 (≈ 21.2 µM) | > 128 | > 128 | > 128 | > 128 | > 128 | > 64 | – |
| CC[C@H](C)[C@@H]1NC(=O)[C@@](C)(NC(=O)[C@H](CC(=O)O)NC(=O)[C@H](Cc2ccccc2)NC(=O)[C@H](CC(C)C)NC(=O)CNC(C)=O)CCC/C=C\CCC[C@@](C)(C(=O)N[C@@H](C)C(=O)N[C@@H](CCC(=O)O)C(=O)N[C@@H](CO)C(=O)N[C@@H](Cc2ccccc2)C(N)=O)NC(=O)[C@H](CCCCN)NC(=O)[C@H](CCCCN)NC1=O (Ac-GLFD[S5]IKK[S5]AESF-NH2; staple (Z) 5-9) | > 128 | > 128 | > 128 | > 128 | 16 (≈ 10.4 µM) | > 128 | > 128 | > 128 | > 128 | > 128 | 16 (≈ 10.4 µM) | – |
| CC[C@H](C)[C@H](NC(=O)[C@H](CCCCN)NC(=O)[C@]1(C)CCC/C=C\CCC[C@](C)(NC(=O)[C@H](CC(C)C)NC(=O)CNC(C)=O)C(=O)N[C@@H](CC(=O)O)C(=O)N[C@@H]([C@@H](C)CC)C(=O)N[C@@H]([C@@H](C)CC)C(=O)N1)C(=O)N[C@@H](C)C(=O)N[C@@H](CCC(=O)O)C(=O)N[C@@H](CO)C(=O)N[C@@H](Cc1ccccc1)C(N)=O (Ac-GL[S5]DII[S5]KIAESF-NH2; staple (Z) 3-7) | > 128 | > 128 | > 128 | > 128 | > 128 | > 128 | > 128 | > 128 | > 128 | > 128 | > 64 | – |
| CC[C@H](C)[C@H](NC(=O)[C@H](CCCCN)NC(=O)[C@H](CCCCN)NC(=O)[C@]1(C)CCC/C=C\CCC[C@](C)(NC(=O)CNC(C)=O)C(=O)N[C@@H](Cc2ccccc2)C(=O)N[C@@H](CC(=O)O)C(=O)N[C@@H]([C@@H](C)CC)C(=O)N1)C(=O)N[C@@H](C)C(=O)N[C@@H](CCC(=O)O)C(=O)N[C@@H](CO)C(=O)N[C@@H](Cc1ccccc1)C(N)=O (Ac-G[S5]FDI[S5]KKIAESF-NH2; staple (Z) 2-6) | > 128 | > 128 | > 128 | > 128 | 16 (≈ 10.4 µM) | > 128 | > 128 | > 128 | > 128 | 128 (≈ 82.8 µM) | > 64 | – |
| CC(=O)N[C@@H](CCCCN)C(=O)N[C@@]1(C)CCC/C=C\CCC[C@@](C)(C(=O)N[C@@H](CCCCN)C(N)=O)NC(=O)[C@H](C)NC(=O)[C@H](CCCCN)NC(=O)[C@H](Cc2c[nH]c3ccccc23)NC1=O (Ac-K[S5]WKA[S5]K-NH2; staple (Z) 2-6) | – | – | – | – | – | – | – | – | – | – | – | 1400 |
| CC(=O)N[C@@H](CCCCN)C(=O)N[C@@]1(C)CCC/C=C\CCC[C@@](C)(C(=O)N[C@@H](CCCCN)C(N)=O)NC(=O)[C@H](CC(C)C)NC(=O)[C@H](CCCCN)NC(=O)[C@H](Cc2c[nH]c3ccccc23)NC1=O (Ac-K[S5]WKL[S5]K-NH2; staple (Z) 2-6) | – | – | – | – | – | – | – | – | – | – | – | < 1000 |
| CC[C@H](C)[C@H](NC(=O)[C@H](CCCCN)NC(=O)[C@H](CCCCN)NC(=O)[C@@H](NC(=O)[C@]1(C)CCC/C=C\CCC[C@](C)(NC(C)=O)C(=O)N[C@@H](CC(C)C)C(=O)N[C@@H](Cc2ccccc2)C(=O)N[C@@H](CC(=O)O)C(=O)N1)[C@@H](C)CC)C(=O)N[C@@H](C)C(=O)N[C@@H](CCC(=O)O)C(=O)N[C@@H](CO)C(=O)N[C@@H](Cc1ccccc1)C(N)=O (Ac-[S5]LFD[S5]IKKIAESF-NH2; staple (Z) 1-5) | 32 (≈ 20 µM) | > 128 | > 128 | > 128 | > 128 | > 128 | > 128 | > 128 | 128 (≈ 79.9 µM) | > 128 | > 64 | – |
| CC[C@H](C)[C@H](NC(=O)[C@H](CC(=O)O)NC(=O)[C@H](Cc1ccccc1)NC(=O)[C@H](CC(C)C)NC(=O)CN)C(=O)N[C@H](C(=O)N[C@@H](CCCCN)C(=O)N[C@@]1(C)CCC/C=C\CCC[C@@](C)(C(=O)N[C@@H](Cc2ccccc2)C(N)=O)NC(=O)[C@H](CCC(=O)O)NC(=O)[C@H](C)NC(=O)[C@H]([C@@H](C)CC)NC1=O)[C@@H](C)CC (H-GLFDIIK[S5]IAE[S5]F-NH2; staple (Z) 8-12) | > 128 | > 128 | > 128 | > 128 | > 128 | > 128 | > 128 | > 128 | > 128 | > 128 | > 64 | – |
| CC[C@H](C)[C@@H]1NC(=O)[C@H](CCCCN)NC(=O)[C@@](C)(NC(=O)[C@@H](NC(=O)[C@@H](NC(=O)[C@H](CC(=O)O)NC(=O)[C@H](Cc2ccccc2)NC(=O)[C@H](CC(C)C)NC(=O)CN)[C@@H](C)CC)[C@@H](C)CC)CCC/C=C\CCC[C@@](C)(C(=O)N[C@@H](CO)C(=O)N[C@@H](Cc2ccccc2)C(N)=O)NC(=O)[C@H](C)NC1=O (H-GLFDII[S5]KIA[S5]SF-NH2; staple (Z) 7-11) | > 128 | > 128 | > 128 | > 128 | > 128 | > 128 | > 128 | > 128 | > 128 | > 128 | > 64 | – |
| CC[C@H](C)[C@H](NC(=O)[C@H](CC(=O)O)NC(=O)[C@H](Cc1ccccc1)NC(=O)[C@H](CC(C)C)NC(=O)CN)C(=O)N[C@@]1(C)CCC/C=C\CCC[C@@](C)(C(=O)N[C@@H](CCC(=O)O)C(=O)N[C@@H](CO)C(=O)N[C@@H](Cc2ccccc2)C(N)=O)NC(=O)[C@H]([C@@H](C)CC)NC(=O)[C@H](CCCCN)NC(=O)[C@H](CCCCN)NC1=O (H-GLFDI[S5]KKI[S5]ESF-NH2; staple (Z) 6-10) | > 128 | > 128 | > 128 | > 128 | > 128 | > 128 | > 128 | > 128 | > 128 | > 128 | > 64 | – |
| CC[C@H](C)[C@@H]1NC(=O)[C@H]([C@@H](C)CC)NC(=O)[C@@](C)(NC(=O)[C@H](Cc2ccccc2)NC(=O)[C@H](CC(C)C)NC(=O)CN)CCC/C=C\CCC[C@@](C)(C(=O)N[C@H](C(=O)N[C@@H](C)C(=O)N[C@@H](CCC(=O)O)C(=O)N[C@@H](CO)C(=O)N[C@@H](Cc2ccccc2)C(N)=O)[C@@H](C)CC)NC(=O)[C@H](CCCCN)NC1=O (H-GLF[S5]IIK[S5]IAESF-NH2; staple (Z) 4-8) | > 128 | > 128 | > 128 | > 128 | > 128 | > 128 | > 128 | > 128 | > 128 | > 128 | > 64 | – |
| CC[C@H](C)[C@H](N)C(=O)N[C@@H](CC(=O)O)C(=O)N[C@@H](Cc1c[nH]c2ccccc12)C(=O)N[C@@H](CCCCN)C(=O)N[C@@H](CCCCN)C(=O)N[C@@]1(C)CCC/C=C\CCC[C@@](C)(C(=O)N[C@@H](CCCCN)C(=O)N[C@@H](CCC(N)=O)C(=O)N[C@H](C(=O)N[C@@H](CC(C)C)C(=O)O)[C@@H](C)CC)NC(=O)[C@H](C)NC(=O)[C@H](CC(=O)O)NC(=O)[C@H](CC(C)C)NC1=O (H-IDWKK[S5]LDA[S5]KQIL-OH; staple (Z) 6-10) | – | – | – | – | – | – | – | – | – | – | – | 12300 |
| OC(Cn1cncn1)(Cn1cncn1)c1ccc(F)cc1F [FLUCONAZOLE] | > 64 | 2 (≈ 6.53 µM) | 64 (≈ 209 µM) | > 128 | > 128 | > 128 | > 64 | 1 (≈ 3.27 µM) | 1 (≈ 3.27 µM) | > 128 | 0.5 (≈ 1.63 µM) | – |
| Ac-GLFDIIKKIAESF-NH2 | > 128 | > 128 | > 128 | > 128 | > 128 | > 128 | > 128 | > 128 | > 128 | > 128 | > 64 | – |
